# Laboratory results reported in PubChem BioAssay (NCI).
# Several values for one entry are separate records, joined by “and”; a condition that tells them apart may be missing. Equal values may be shown once.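 These data come from cells grown in 96-well plates and exposed to compound for 48 hours at five concentrations. At the GI50, growth is halved. TGI is the concentration that stops growth completely.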
# Experiments:
# Test in all cases: NCI anticancer screen, dose series, 48 h
# CCRF-CEM leukemia = tested on: CCRF-CEM leukemia
# DU-145 prostate = tested on: DU-145 prostate
# HCC-2998 colon = tested on: HCC-2998 colon
# HCT-116 colon = tested on: HCT-116 colon
# HS 578T breast = tested on: HS 578T breast
# M14 melanoma = tested on: M14 melanoma
# MDA-MB-435 = tested on: MDA-MB-435
# NCI-H23 lung = tested on: NCI-H23 lung
# NCI-H522 lung = tested on: NCI-H522 lung
# OVCAR-8 ovarian = tested on: OVCAR-8 ovarian
SMILES,GI50 (CCRF-CEM leukemia),TGI (CCRF-CEM leukemia),GI50 (DU-145 prostate),TGI (DU-145 prostate),GI50 (HCC-2998 colon),TGI (HCC-2998 colon),GI50 (HCT-116 colon),TGI (HCT-116 colon),GI50 (HS 578T breast),TGI (HS 578T breast),GI50 (M14 melanoma),TGI (M14 melanoma),GI50 (MDA-MB-435),TGI (MDA-MB-435),GI50 (NCI-H23 lung),TGI (NCI-H23 lung),GI50 (NCI-H522 lung),TGI (NCI-H522 lung),GI50 (OVCAR-8 ovarian),TGI (OVCAR-8 ovarian)
O=C1c2ccccc2-c2c1c1c(O)cccc1n2CCCc1ccccc1,24.1 µM,> 100 µM,28.1 µM,> 100 µM,2.35 µM,6.01 µM,5.91 µM,> 100 µM,41.7 µM,> 100 µM,> 100 µM,> 100 µM,16.7 µM,> 100 µM,18.6 µM,> 100 µM,3.85 µM,38.5 µM,31.7 µM,> 100 µM
NC(Cc1ccc(O)cc1)C(=O)N/N=C/c1ccc(N(CCCl)CCCl)cc1 (stereo not given),0.231 µM,> 100 µM,5.19 µM,34.7 µM,24.1 µM,> 100 µM,21.8 µM,> 100 µM,32 µM,> 100 µM,17.5 µM,81.2 µM,12.2 µM,65.4 µM,12.3 µM,> 100 µM,25.1 µM,> 100 µM,5.58 µM,55 µM
CS(=O)/C(C#N)=C\C=C\c1cccc(Cl)c1 (stereo not given),2.34 µM,18.7 µM,1.45 µM,3.32 µM,1.8 µM,3.3 µM,1.12 µM,4.73 µM,13.1 µM,52.6 µM,2.57 µM,11.2 µM,2.34 µM,10.6 µM,1.63 µM,4.96 µM,1.96 µM,5.65 µM,3.78 µM,17.9 µM
Cc1cn(C2CC(N=[N+]=[N-])C(CO)O2)c(=O)[nH]c1=O (stereo not given),,> 1000 µM,,> 1000 µM,> 1000 µM,> 1000 µM,,422 µM,,> 1000 µM,> 1000 µM,> 1000 µM,,> 1000 µM,> 1000 µM,> 1000 µM,> 1000 µM,> 1000 µM,,> 1000 µM
COc1cccc(C(C#N)NC23CC4CC(CC(C4)C2)C3)c1 (stereo not given),,> 100 µM,,> 100 µM,,> 100 µM,,> 100 µM,,> 100 µM,,> 100 µM,,> 100 µM,,> 100 µM,,> 100 µM,,> 100 µM
Nc1ncnc2c1nc(N)n2C1OC(CO)C(O)C1O (stereo not given),1.3 µM,> 22.9 µM,0.401 µM,2.09 µM,0.32 µM,1.66 µM,0.302 µM,10.5 µM,2.45 µM,> 28.4 µM,0.11 µM,0.355 µM,0.153 µM,0.773 µM,0.309 µM,2.23 µM,0.809 µM,2.61 µM,0.63 µM,2.98 µM
CCCCCCCCCCCCNC(=O)[C@H]1CSC(c2cc(Br)cs2)N1 (stereo not given in full),1.03 µM,2.51 µM,1.11 µM,2.5 µM,2.73 µM,9.41 µM,0.909 µM,1.74 µM,1.09 µM,2.51 µM,0.858 µM,1.65 µM,0.665 µM,1.31 µM,1.53 µM,5.11 µM,1.37 µM,4.31 µM,1.58 µM,4.67 µM
O=C1/C(=C\c2ccc([N+](=O)[O-])cc2)CS(=O)(=O)C/C1=C/c1ccc([N+](=O)[O-])cc1,0.0128 µM,0.133 µM,0.87 µM,12.4 µM,11.3 µM,25.6 µM,0.0821 µM,0.227 µM and 1.28 µM,0.447 µM,39.4 µM,0.131 µM,0.331 µM and 2.51 µM,0.208 µM,0.808 µM and 1.5 µM,0.252 µM,0.651 µM and 5.12 µM,0.168 µM,0.398 µM and 1.29 µM,0.0764 µM,0.93 µM
C/C(=C\CCc1ccsc1)CC/C=C(\C)CCCN1CCN(CCO)CC1,2.28 µM,6.51 µM,6.96 µM,19.6 µM,1.97 µM,3.63 µM,2.71 µM,9.26 µM,2.7 µM,8.07 µM,2.05 µM,4.2 µM,2.84 µM,8.66 µM,3.37 µM,13.4 µM,1.91 µM,4.71 µM,4.84 µM,18.4 µM
COc1cc(-c2ccc(Nc3ccccc3C(=O)O)c(OC)c2)ccc1Nc1ccccc1C(=O)O,,86.1 µM,,49.9 µM,,> 82 µM,,23.6 µM,,> 100 µM,,> 100 µM,,46 µM,,71 µM,,66.6 µM,,81.5 µM
COc1ccccc1N(C(C)=O)C1=C(Cl)C(=O)c2ccccc2C1=O,1.95 µM,5.11 µM,3.46 µM,12 µM,2.23 µM,8.61 µM,0.76 µM,2.18 µM,2.7 µM,> 71.9 µM,1.88 µM,5.91 µM,1.9 µM,4.55 µM,1.65 µM,6 µM,0.33 µM,1.42 µM,2.72 µM,> 32.2 µM
O=C(NCCSSCCNC(=O)/C(Cc1ccc(O)c(Br)c1)=N/O)/C(Cc1ccc(O)c(Br)c1)=N/O,,> 18.3 µM,,12.7 µM,,8.11 µM,,5.98 µM,,> 50 µM,,7.22 µM,,> 24.9 µM,,13.1 µM,,4.26 µM,,> 50 µM
CC[C@@]1(O)C(=O)OCc2c1cc1n(c2=O)Cc2cc3c(Cl)c4c(cc3nc2-1)OCO4,< 0.001 µM,> 100 µM,< 0.001 µM,> 100 µM,0.149 µM and 0.235 µM,6.42 µM,1.1 µM,> 100 µM,,> 100 µM,< 0.001 µM,4.02 µM,0.0193 µM and 0.0229 µM,> 100 µM,< 0.001 µM,,,7.58 µM and 60.5 µM,< 0.001 µM,
